From the supplement of paper PMC6045584
± gives the standard deviation of the averaged measurements.

Experiments:
[1] = compound: Cc1nc(Nc2n[nH]c3c2CN(C(=O)N[C@H](CN(C)C)c2ccccc2)C3(C)C)c2sccc2n1; assay: surviving fraction relative to DMSO-only wells; higher = less growth inhibition; conditions: exposure time: 5 days
Outline: (§1)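 Log-phase tumour cell lines were seeded at 250–500 cells per well in 384-well plates. After 24 hours they were exposed continuously for five days to inhibitors at 0.5, 1, 5, 10, 50, 100, 500 and 1000 nM. Viability was read by CellTiter-Glo luminescence after 10 minutes at room temperature, and surviving fraction is luminescence normalised to the median of DMSO-only wells. Each line was screened three times and kept only if replicate Pearson r >0.7 and median Z' >0.3.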

EVEROLIMUS = compound: CO[C@H]1C[C@@H]2CC[C@@H](C)[C@@](O)(O2)C(=O)C(=O)N2CCCC[C@H]2C(=O)O[C@H]([C@H](C)C[C@@H]2CC[C@@H](OCCO)[C@H](OC)C2)CC(=O)[C@H](C)/C=C(\C)[C@@H](O)[C@@H](OC)C(=O)[C@H](C)C[C@H](C)/C=C/C=C/C=C/1C [EVEROLIMUS]; assay: as above; conditions: exposure time: 5 days
Outline: as §1

| Test System | surviving fraction ([1]; 0.5 nM) | surviving fraction ([1]; 1 nM) | surviving fraction ([1]; 5 nM) | surviving fraction ([1]; 10 nM) | surviving fraction ([1]; 50 nM) | surviving fraction ([1]; 100 nM) | surviving fraction ([1]; 500 nM) | surviving fraction ([1]; 1000 nM) | surviving fraction (EVEROLIMUS; 0.5 nM) | surviving fraction (EVEROLIMUS; 1 nM) | surviving fraction (EVEROLIMUS; 5 nM) | surviving fraction (EVEROLIMUS; 10 nM) | surviving fraction (EVEROLIMUS; 50 nM) | surviving fraction (EVEROLIMUS; 100 nM) | surviving fraction (EVEROLIMUS; 500 nM) | surviving fraction (EVEROLIMUS; 1000 nM) |
| --- | --- | --- | --- | --- | --- | --- | --- | --- | --- | --- | --- | --- | --- | --- | --- | --- |
| C33A CERVIX | 0.67 ± 0.035 | 0.62 ± 0.016 | 0.298 ± 0.049 | 0.26 ± 0.024 | 0.221 ± 0.011 | 0.214 ± 0.024 | 0.146 ± 0.0049 | 0.0663 ± 0.009 | 0.757 ± 0.058 | 0.649 ± 0.06 | 0.469 ± 0.017 | 0.432 ± 0.0057 | 0.355 ± 0.027 | 0.369 ± 0.028 | 0.303 ± 0.051 | 0.277 ± 0.015 |
| CAL72 BONE | 1.04 ± 0.066 | 0.993 ± 0.032 | 0.691 ± 0.061 | 0.556 ± 0.058 | 0.435 ± 0.025 | 0.399 ± 0.011 | 0.194 ± 0.023 | 0.0947 ± 0.0081 | 0.967 ± 0.17 | 0.87 ± 0.16 | 0.707 ± 0.12 | 0.671 ± 0.1 | 0.61 ± 0.056 | 0.641 ± 0.057 | 0.576 ± 0.028 | 0.608 ± 0.026 |
| G292 BONE | 0.782 ± 0.028 | 0.642 ± 0.029 | 0.42 ± 0.0074 | 0.376 ± 0.004 | 0.324 ± 0.014 | 0.287 ± 0.012 | 0.166 ± 0.0052 | 0.0753 ± 0.0032 | 0.803 ± 0.0075 | 0.721 ± 0.038 | 0.518 ± 0.015 | 0.476 ± 0.024 | 0.433 ± 0.0098 | 0.436 ± 0.014 | 0.408 ± 0.015 | 0.405 ± 0.01 |
| HCC1395 BREAST | 0.927 ± 0.18 | 0.984 ± 0.06 | 1.06 ± 0.013 | 1.11 ± 0.13 | 0.964 ± 0.14 | 1.16 ± 0.26 | 0.964 ± 0.15 | 0.961 ± 0.16 | 1.18 ± 0.041 | 1.08 ± 0.03 | 1.19 ± 0.025 | 0.998 ± 0.05 | 1.02 ± 0.099 | 1 ± 0.041 | 0.974 ± 0.026 | 0.951 ± 0.056 |
| HUO3N1 BONE | 0.971 ± 0.018 | 0.942 ± 0.034 | 0.853 ± 0.011 | 0.781 ± 0.024 | 0.683 ± 0.015 | 0.625 ± 0.038 | 0.462 ± 0.029 | 0.407 ± 0.0059 | 0.751 ± 0.021 | 0.688 ± 0.011 | 0.655 ± 0.013 | 0.632 ± 0.016 | 0.624 ± 0.043 | 0.617 ± 0.042 | 0.581 ± 0.031 | 0.607 ± 0.023 |
| LNCAP PROSTATE | 0.773 ± 0.021 | 0.632 ± 0.054 | 0.215 ± 0.0067 | 0.196 ± 0.019 | 0.098 ± 0.017 | 0.097 ± 0.012 | 0.0357 ± 0.0032 | 0.0227 ± 0.0029 | 0.679 ± 0.048 | 0.544 ± 0.012 | 0.409 ± 0.033 | 0.404 ± 0.043 | 0.285 ± 0.032 | 0.288 ± 0.0055 | 0.219 ± 0.0032 | 0.222 ± 0.0092 |
| SCC003 HEADNECK | 0.993 ± 0.094 | 1.05 ± 0.094 | 0.61 ± 0.043 | 0.418 ± 0.022 | 0.278 ± 0.029 | 0.275 ± 0.028 | 0.227 ± 0.021 | 0.183 ± 0.012 | 1.07 ± 0.043 | 1 ± 0.04 | 1.04 ± 0.035 | 0.961 ± 0.036 | 0.953 ± 0.037 | 0.94 ± 0.094 | 0.923 ± 0.066 | 0.92 ± 0.061 |
